Experimental data reported in patent publication US20060166900A1, “Salt of morphine-6-glucuronide” (CeNeS Limited, priority 2002, published 2006).

Tests used:
Type in all cases: physicochemical
[1] = Visual appearance on storage (Example 3)
Procedure: (§1) Each test material was stored between 2-8*C prior to placing on stability. Each material was sub-divided into 900 mg aliquots, transferred to brown opaque HDPE plastic bottles and flushed with Argon prior to sealing. Sufficient samples were provided for each time point as well as spares for each storage condition. The samples were placed in appropriate incubators previously commissioned at storage conditions 25° C./60% RH, 40° C./75% RH and 60° C.
The samples were stored for analysis according to the following table: […]

[2] = Water content by Karl Fisher analysis on storage (Example 3)
Procedure: Water content (% w/w) by Karl Fisher analysis
as §1
Water Content by Karl Fisher Analysis
Water content was determined in duplicate on an aliquot of equilibrated material (approximately 100 mg) using a Tritrino 720 KFS Titrator.

[3] = Colour of solution by visible spectrophotometry on storage (Example 3); conditions: 5% w/v solution in water
Procedure: Colour of solution by UV spectrophotometry.
as §1
Colour by Visible Spectrophotometry
A 5% w/v solution of test material was prepared in water and the absorbance measured at 420 nm in a 1 cm silica cell using a Unicam UV4 Visible/UV spectrophotometer.

[4] = Stability indicating HPLC assay and related substances on storage (Example 3)
Procedure: Assay (% w/w) and related substances determination
as §1
Testing Procedures Test for Identity Content and Impurities
Testing was performed in duplicate (2×25 mg) in accordance with a stability indicating HPLC assay method. The assay results were reported as M6G as is, M6G as the anhydrous, solvent free material and the anhydrous solvent free material corrected for the salt form using the relevant conversion factor.

CN1CCC23c4c5ccc(O)c4OC2C(OC2OC(C(=O)O)C(O)C(O)C2O)C=CC3C1C5.O=P(O)(O)O (stereo not shown) [Morphine-6-glucuronide phosphate]
Appearance ([1]; 1 month, 25° C./60% RH): White crystalline powder
Appearance ([1]; 1 month, 40° C./75% RH): Slightly yellow crystalline powder
Appearance ([1]; 1 month, 60° C.): Pale yellow crystalline powder
Appearance ([1]; 3 months, 25° C./60% RH): White crystalline powder
Appearance ([1]; 3 months, 25° C./60% RH, listed as phosphate): white crystalline solids
Appearance ([1]; 3 months, 40° C./75% RH): Slightly yellow crystalline powder
Appearance ([1]; Initial): White crystalline powder
Moisture ([2]; 1 month, 25° C./60% RH): 3.91 % w/w
Moisture ([2]; 1 month, 40° C./75% RH): 9.28 % w/w
Moisture ([2]; 1 month, 60° C.): 5.12 % w/w
Moisture ([2]; 3 months, 25° C./60% RH): 5.06 % w/w
Moisture ([2]; 3 months, 40° C./75% RH): 11.88 % w/w
increase in moisture content compared to initial ([2]; 40° C./75% RH): around 8%
Moisture ([2]; Initial): 3.12 % w/w
Colour ([3]; 1 month, 25° C./60% RH): 0.053 Abs@420 nm
Colour ([3]; 1 month, 40° C./75% RH): 0.308 Abs@420 nm
Colour ([3]; 1 month, 60° C.): 0.787 Abs@420 nm
Colour ([3]; 3 months, 25° C./60% RH): 0.098 Abs@420 nm
Colour ([3]; 3 months, 40° C./75% RH): 0.878 Abs@420 nm
Colour ([3]; Initial): 0.034 Abs@420 nm
Known Related Substances HN33177 ([4]; 1 month, 25° C./60% RH): 0.78%
Known Related Substances HN67003 ([4]; 1 month, 25° C./60% RH): 0.04%
Known Related Substances HN75083 ([4]; 1 month, 25° C./60% RH): 0.03%
M6G Assay, Anhydrous basis ([4]; 1 month, 25° C./60% RH): 91.37 % w/w
M6G Assay, As is basis ([4]; 1 month, 25° C./60% RH): 84.57 % w/w
M6G Assay, Corrected for the salt form ([4]; 1 month, 25° C./60% RH): 110.76 % w/w
Total Known ([4]; 1 month, 25° C./60% RH): 0.85%
Total Related Substances ([4]; 1 month, 25° C./60% RH): 1.41%
Total Unknown ([4]; 1 month, 25° C./60% RH): 0.56%
Known Related Substances HN33177 ([4]; 1 month, 40° C./75% RH): 0.70%
Known Related Substances HN67003 ([4]; 1 month, 40° C./75% RH): 0.53%
Known Related Substances HN75083 ([4]; 1 month, 40° C./75% RH): 0.14%
M6G Assay, Anhydrous basis ([4]; 1 month, 40° C./75% RH): 92.00 % w/w
M6G Assay, As is basis ([4]; 1 month, 40° C./75% RH): 80.20 % w/w
M6G Assay, Corrected for the salt form ([4]; 1 month, 40° C./75% RH): 111.52 % w/w
Total Known ([4]; 1 month, 40° C./75% RH): 1.37%
Total Related Substances ([4]; 1 month, 40° C./75% RH): 3.44%
Total Unknown ([4]; 1 month, 40° C./75% RH): 2.07%
Known Related Substances HN33177 ([4]; 1 month, 60° C.): 0.70%
Known Related Substances HN67003 ([4]; 1 month, 60° C.): 0.90%
Known Related Substances HN75076 ([4]; 1 month, 60° C.): 0.03%
Known Related Substances HN75083 ([4]; 1 month, 60° C.): 0.27%
Known Related Substances Morphine ([4]; 1 month, 60° C.): 0.18%
M6G Assay, Anhydrous basis ([4]; 1 month, 60° C.): 88.33 % w/w
M6G Assay, As is basis ([4]; 1 month, 60° C.): 80.69 % w/w
M6G Assay, Corrected for the salt form ([4]; 1 month, 60° C.): 107.08 % w/w
Total Known ([4]; 1 month, 60° C.): 2.08%
Total Related Substances ([4]; 1 month, 60° C.): 5.43%
Total Unknown ([4]; 1 month, 60° C.): 3.35%
stability based on % w/w assay ([4]; 3 month assay data): most stable
Known Related Substances HN33177 ([4]; 3 months, 25° C./60% RH): 0.78%
Known Related Substances HN67003 ([4]; 3 months, 25° C./60% RH): 0.16%
Known Related Substances HN75076 ([4]; 3 months, 25° C./60% RH): 0.03%
Known Related Substances HN75083 ([4]; 3 months, 25° C./60% RH): 0.19%
Known Related Substances Morphine ([4]; 3 months, 25° C./60% RH): 0.07%
M6G Assay, Anhydrous basis ([4]; 3 months, 25° C./60% RH): 91.16 % w/w
M6G Assay, As is basis ([4]; 3 months, 25° C./60% RH): 84.25 % w/w
M6G Assay, Corrected for the salt form ([4]; 3 months, 25° C./60% RH): 110.50 % w/w
Total Known ([4]; 3 months, 25° C./60% RH): 1.23%
Total Related Substances ([4]; 3 months, 25° C./60% RH): 2.31%
Total Unknown ([4]; 3 months, 25° C./60% RH): 1.08%
Known Related Substances HN33177 ([4]; 3 months, 40° C./75% RH): 0.59%
Known Related Substances HN67003 ([4]; 3 months, 40° C./75% RH): 0.75%
Known Related Substances HN75076 ([4]; 3 months, 40° C./75% RH): 0.12%
Known Related Substances HN75083 ([4]; 3 months, 40° C./75% RH): 0.06%
Known Related Substances Morphine ([4]; 3 months, 40° C./75% RH): 0.32%
M6G Assay, Anhydrous basis ([4]; 3 months, 40° C./75% RH): 92.40 % w/w
M6G Assay, As is basis ([4]; 3 months, 40° C./75% RH): 79.02 % w/w
M6G Assay, Corrected for the salt form ([4]; 3 months, 40° C./75% RH): 112.01 % w/w
Total Known ([4]; 3 months, 40° C./75% RH): 1.84%
Total Related Substances ([4]; 3 months, 40° C./75% RH): 5.99%
Total Unknown ([4]; 3 months, 40° C./75% RH): 4.15%
Known Related Substances HN33177 ([4]; Initial): 0.75%
Known Related Substances HN67003 ([4]; Initial): 0.04%
Known Related Substances HN75083 ([4]; Initial): 0.07%
M6G Assay, Anhydrous basis ([4]; Initial): 89.21 % w/w
M6G Assay, As is basis ([4]; Initial): 83.90 % w/w
M6G Assay, Corrected for the salt form ([4]; Initial): 108.12 % w/w
Total Known ([4]; Initial): 0.86%
Total Related Substances ([4]; Initial): 0.86%
Total Unknown ([4]; Initial): 0.00%
assay values throughout the study ([4]; all storage conditions, material a phosphate/base mixture): around 110%
